For series [1], the system named is Human breast squamous carcinoma cells HCC1806. The experiment in a line: Cell function assay (In-Cell Western, PAR/pADPr after MMS). It is filed as cell-based. The note with it: read-out: IC50 (nM) in cell function assay. The procedure, abridged: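 HCC1806 cells adhered 24 h at 37 °C, 5% CO2, then were pretreated 1 h with compound (30000 nM down to 1 nM, plus 0 nM) or DMSO. MMS was then added at 0.5 mM final for 1 h before In-Cell Western detection of PAR/pADPr.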

Series [2] can be described thus: Solubility assay (FaSSGF / FaSSIF). It is filed as physicochemical. The note with it: kinetic from dmso stock, 2 h at 25° C. The procedure:
1). Preparation of Solutions:
The FaSSGF solution was prepared as follows: • a) preparation of FaSSGF buffer: dissolve 2.0 g of NaCl as the raw material in about 0.9 L of purified water; • b) adjustment of the pH of the buffer: adjust the pH of the buffer to 1.6 with 1N HCL, and replenish the buffer with purified water to the volume of 1 L; and • c) preparation of FaSSGF solution by addition of FaSSGF powder: add 0.06 g of the FaSSGF powder to about 0.5 L of the buffer, stir until the powder was completely dissolved, and make up for the volume (1 L) with the buffer.
The FaSSIF solution was prepared as follows: • a) preparation of FaSSIF buffer: dissolve 0.42 g of NaOH, 3.44 g of anhydrous NaH2PO4, and 6.19 g of NaCl as raw materials in about 0.9 L of purified water; • b) adjustment the pH of the buffer: adjust the pH of the buffer to 6.5 with 1 N NaOH or 1 N HCL, and replenish the buffer with purified water to the volume of 1 L; and • c) preparation of FaSSIF solution by addition of FaSSIF powder: add 2.24 g of the FaSSIF powder to about 0.5 L of the buffer, stir until the powder was completely dissolved, and make up for the volume (1 L) with the buffer.
2). Preparation of the Solution of Control Compound:
The control compound was weighed and dissolved in DMSO to 10 mM to obtain a stock solution.
3) Preparation of the Solution of Compound to be Tested:
The compound to be tested was formulated into a 10 mM DMSO stock solution.
4) Preparation of Internal Standard Solution:
a) The internal standard was weighed and dissolved in DMSO to 10 mM to obtain an internal standard stock solution (ISTD stock solution).
b) The internal standard stock solution was diluted to 500 nM (Tolbutamide) with an ACN:methano mixture (volume ratio: 1:1) to obtain a quenching solution.
a) The FaSSGF solution at pH 1.6 and the FaSSIF solution at pH 6.5 were pre-warmed; and then, the compound was injected into the buffer.
Once done, the samples were centrifuged at 12,000 rpm for 10 min, and the supernatant was transferred to a new tube. The supernatant was diluted 10-fold and 100-fold with the FaSSGF solution at pH 1.6 or the FaSSIIF solution at pH 6.5. 20 μL of each sample (1×, 10×, 100× and standard curve) was added to 500 μL of the IS solution. The resulting mixture was vortexed vigorously for 1 min and centrifuged at 4,500 rpm for 15 min at 4° C. 150 μL of the supernatant was transferred for LC-MS/MS sample analysis.

A short description of another series: Mouse PK assay. It is filed as in vivo. The note with it: CD1 mice, oral administration, 30 mg/kg, plasma; for bioavailability / half-life / MRT: mouse; for half-life: read-out: Half-life period (converted); for MRT: read-out: Mean residence time. The procedure:
The goal of this assay was to study the pharmacokinetics of the test compound on CD1 mice (6-8 weeks old, Zhejiang Vegavit Bio-technology Co., Ltd.) after oral administration. The specific experimental procedures were as follows: • 1) the compound was dissolved in 8% DMSO+72% PEG 400+20% ([…]); and • 2) blood samples were collected, with 0.03 mL collected at 0.25 h, 0.5 h, 1 h, 2 h, 4 h, 8 h, and 24 h, and EDTA-K2 was added. CD1 mice: Approximately 0.03 mL of blood was collected at each time point. The blood was centrifuged for 5 min at 4000 g in a centrifuge at 4° C. to collect plasma. Plasma samples were aliquoted into clean polyethylene microcentrifuge tubes and then stored in a freezer at −75±15° C. before analysis; and • 3) samples were analyzed, and the concentration of the compound in each plasma sample was analyzed with LC-MS/MS. For plasma measurements, pharmacokinetic parameters were calculated using WinNonlin (Phoenix™, version 8.3) or other similar software.

A further series concerns HCC1806. Nature of the series: Cell viability assay (CellTiter-Glo). It is filed as cell-based, Human. The note with it: HCC1806, 7 days, CellTiter-Glo, read-out: IC50 (nM) in cell viability assay. Background: Cellular ATP, detected with luciferase, serves as a proxy for viable cell number.
Setting [3] is: HCC1806, In-Cell Western, MMS treatment.
Where [4] appears, read: HCC1806, compound 1 h then 0.5 mM MMS 1 h, PAR/pADPr antibody, In-Cell Western.
Where [5] appears, read: fassgf or other biorelevant, FaSSGF solution pH 1.6, 100 μM from DMSO stock, read-out: FaSSGF solubility.
The mark [6] stands for this setting: FaSSIF solution pH 6.5, 100 μM from DMSO stock, read-out: FaSSIF solubility.

≈ marks a conversion by molar mass, not a printed value. Read-outs that look alike come from different tables or passages of the source.

Usually IC50 stands for the concentration at which inhibition is half-maximal. What is called solubility is how much of the substance goes into solution per volume. Broadly, the bioavailability is the share of a dose that reaches the circulation, judged against a reference dose that is usually intravenous. What is called half-life is the time needed for the level to fall by half in the phase considered. As to `CC(C)C(=O)N1CCN(c2cc(S(=O)(=O)NC3(C#N)CC3)cn3c(-c4nnc(C(F)F)s4)ncc23)CC1` [Example 32, N-(1-cyanocyclopropyl)-3-(5-(difluoromethyl)-1,3,4-thiadiazol-2-yl)-8-(4-isobutyrylpiperazin-1-yl)imidazo[1,5-a]pyridine-6-sulfonamide], the IC50 in series [1] (setting [3]) stood at 10.8 nM. For the same compound, in series [1] (setting [4]), the IC50 was below 100 nM. Moreover, the solubility at 2 h in series [2] (setting [5]) was 0.9 µM (≈ 0.496 µg/mL). Further, the solubility at 2 h in series [2] (setting [6]) came to 3.18 µM (≈ 1.75 µg/mL). In “Mouse PK assay”, the “Area under the curve (0-last; hr*ng/mL)” value amounted to 13174 ng·h/mL, the “Peak concentration” value is listed as 5317 ng/mL, the “Time to peak” value came out at 0.333 h and the bioavailability turned out to be 47%. In “Mouse PK assay”, the half-life is 1.31 h and the MRT turned out to be 1.92 h.

In the case of `CC(C)C(=O)N1CCN(c2cc(S(=O)(=O)NC3(C#N)CC3)cn3c(-c4nnc(C(F)(F)F)s4)ncc23)CC1` [Example 167, N-(1-cyanocyclopropyl)-8-(4-isobutyrylpiperazin-1-yl)-3-(5-(trifluoromethyl)-1,3,4-thiadiazol-2-yl)imidazo[1,5-a]pyridine-6-sulfonamide], in series [1] (setting [3]), the IC50 worked out at 6.34 nM. In addition, in series [1] (setting [4]), the half-inhibitory concentration (IC50) is below 100 nM. For the same compound, the IC50 in the series on HCC1806 was determined as 290 nM. In addition, the IC50 with HCC1806 (Homo sapiens, HCC1806, 168 h) is below 500 nM. In addition, the solubility at 2 h in series [2] (setting [5]) amounted to 57.5 µM (≈ 32.7 µg/mL). Moreover, the solubility at 2 h in series [2] (setting [6]) turned out to be 96.5 µM (≈ 54.9 µg/mL). In addition, in “Mouse PK assay”, the “Area under the curve (0-last; hr*ng/mL)” value was found to be 29273 ng·h/mL, the “Peak concentration” value was determined as 4087 ng/mL, the “Time to peak” value is 1.67 h and the bioavailability turned out to be 85%. Also, in the series “Mouse PK assay”, the half-life is 2.75 h and the MRT worked out at 4.81 h.

The record behind these values is patent US20260258035A1, “FIVE-MEMBERED AND SIX-MEMBERED NITROGEN-CONTAINING COMPOUND, AND INTERMEDIATE, PREPARATION METHOD AND USE THEREOF” (HANGZHOU SYNRX THERAPEUTICS BIOMEDICAL TECHNOLOGY CO., LTD., priority 2022, published 2026).
